Data reported in patent US7855209B2, “Allosteric modulators of the A1 adenosine receptor” (King Pharmaceuticals Research and Development, Inc., priority 2006, dated 2010).
Values belong to the compound of their own block, whether it stands above or below them.

Key:
[1] = biological target: T1, human A1-adenosine receptor (Homo sapiens, UniProt P30542); experiment: Saturation binding of [3H]CCPA to hCHO-A1 membranes (BMAX)
T1 construct: expressed in transfected cells; host or cells: CHO cells (hCHO-A1 clone)
T1 sequence (P30542 1-326): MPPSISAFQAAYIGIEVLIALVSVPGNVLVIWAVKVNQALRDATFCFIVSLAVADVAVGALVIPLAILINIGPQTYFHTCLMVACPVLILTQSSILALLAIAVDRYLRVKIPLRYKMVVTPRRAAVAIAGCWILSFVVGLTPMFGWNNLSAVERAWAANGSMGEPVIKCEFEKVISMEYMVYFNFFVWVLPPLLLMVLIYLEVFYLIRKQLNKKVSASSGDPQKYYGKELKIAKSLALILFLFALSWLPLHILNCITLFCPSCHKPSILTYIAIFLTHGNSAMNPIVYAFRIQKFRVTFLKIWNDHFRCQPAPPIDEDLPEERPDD
Method: Membrane Preparation from CHO Cells Transfected with the Human Recombinant A1, A2A and A3 Adenosine Receptors:
The hCHO-A1, hCHO-A2A and hCHO-A3 cell clones are grown adherently and maintained in Dulbecco's modified Eagle's medium with nutrient mixture F12, containing 10% fetal calf serum, penicillin (100 U/mL), streptomycin (100 μg/mL), L-glutamine (2 mM), geneticine (G418, 0.2 mg/mL) at 37° C. in 5% CO2/95% air (Klotz et al. Naunyn-Schmied. Arch Pharm. 1998, 357, 1-9). Cells are split two or three times weekly at a ratio of between 1:5 and 1:10. For membrane preparation the culture medium is removed. […] The protein concentration is determined according to a Bio-Rad method (Bradford, 1976) with bovine albumin as a standard reference. […]
To determine the effect of the compounds of the present invention on the binding to A1, A2A and A3 receptors, membranes from hCHO-A1, hCHO-A2A, hCHO-A3 are incubated in a buffer solution in the absence and in the presence of the examined compounds. […] Bound and free radioactivity are separated by filtering the assay mixture through Whatman GF/B glass fibre filters using a Micro-mate 196 cell harvester (Packard Instrument Company). The filter bound radioactivity was counted on Top Count Microplate Scintillation Counter (efficacy 57%) with Micro-Scint 20. […]

[2] = biological target: T1, human A1-adenosine receptor; experiment: Functional assay measuring the cAMP level in CHO cells expressing the human A1-adenosine receptor; assay type: cell-based
Method: Measurement of cAMP Enhancement in CHO Cells (Functional Assay):
Allosteric enhancement is measured as the action of a test compound at different concentrations (0.01, 0.1, 1 and 10 μM) to reduce the cAMP content of hCHO-A1 cells. To initiate an experiment, growth medium is removed from the 12-well plates and cells are washed once with warm Hanks' buffered saline. The wash solution is then removed and replaced with fresh Hanks' solution containing forskolin (1 μM), rolipram (20 μM), N^6-cyclopentyladenosine (CPA, 0.01 nM), adenosine deaminase (2 U/mL), and the test compound. Forskolin is used to stimulate the activity of adenylyl cyclase, rolipram to inhibit cAMP phosphodiesterase, adenosine deaminase to degrade endogenous adenosine, and CPA to cause a small increase of the number of activated adenosine receptors. […] The content of cAMP in acidified extracts of cells is determined by radioimmunoassay as previously described (Kollias-Baker et al. J. Pharmacol. Exp. Ther. 1997, 281, 761-768). Because the magnitude of the effects of allosteric modulators on hCHO-A1 cells change subtly with passage number and differ slightly among different aliquots of cells, the actions of the test compounds and the action of a reference compound (PD 81,723) are assessed in each experiment. […]

increase of the BMAX value of the agonist [3H]CCPA ([1]; at 10 μM concentration, human A1 adenosine receptors): up to 600%
IC50 [2]: ~0.1 µM
Structure (SMILES): Nc1scc(CN2CCN(c3ccc(Cl)cc3)CC2)c1C(=O)c1ccc(Cl)cc1 [Example 4, {2-Amino-4-[4-((4-chlorophenyl)piperazin-1-yl)methyl]thiophen-3-yl}(4-chlorophenyl)methanone]

increase in the BMAX value of the agonist [3H]CCPA [1]: about 6 fold
Structure (SMILES): Nc1scc(CN2CCC3(CC2)Oc2cccc(F)c2O3)c1C(=O)c1ccc(Cl)cc1 [Example 60, {2-Amino-4-(4-fluorospiro[benzo[d][1,3]-dioxole-2,4′-piperidine]-1′-ylmethyl)thiophen-3-yl}(4-chlorophenyl)methanone]

melting point: 140 to 141 °C
Structure (SMILES): Cc1sc(N)c(C(=O)c2ccc(Cl)cc2)c1CN1CCN(c2cccc(F)c2)CC1 [Example 88, {2-Amino-4-[(4-(3-fluorophenyl)piperazin-1-yl)methyl]-5-methylthiophen-3-yl}(4-chlorophenyl)methanone]
